# Measurements taken from patent publication US20200079758A1, “[4-(PHENYLSULFONYL)PIPERAZIN-1-YL](1H-1,2,3-TRIAZOL-4-YL)METHANONES” (priority 2016, published 2020).
# Molecular target: T1, recombinant human AKR1C3 (Homo sapiens, UniProt P42330)
# T1 construct: GST (cleaved yes); made in house; host or cells: E. coli
# T1 sequence (P42330 1-323): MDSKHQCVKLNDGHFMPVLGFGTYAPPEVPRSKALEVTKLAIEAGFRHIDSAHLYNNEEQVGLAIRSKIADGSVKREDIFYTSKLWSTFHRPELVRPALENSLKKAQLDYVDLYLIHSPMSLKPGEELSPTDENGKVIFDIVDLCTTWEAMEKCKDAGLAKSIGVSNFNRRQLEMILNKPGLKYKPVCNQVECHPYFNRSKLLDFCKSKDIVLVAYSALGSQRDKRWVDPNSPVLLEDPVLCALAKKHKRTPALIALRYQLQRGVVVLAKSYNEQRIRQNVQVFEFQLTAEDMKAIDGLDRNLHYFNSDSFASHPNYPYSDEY
# Experiment: AKR1C3-inhibitory activity assay (generation of Coumberol from Coumberone)
# Format: biochemical
# Settings: Coumberone 0.3 μM, NADPH 10 μM, 22° C., typically 90 min, average or median values
# Outline: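 Recombinant human AKR1C3 (E. coli GST fusion, GST removed; ~1 nM) preincubated 15 min with compound, then NADPH 10 μM and Coumberone 0.3 μM (final), 22 °C, typically 90 min, in 50 mM K-phosphate pH 7. Stopped with EM-1404 (1 μM final); Coumberol fluorescence read at 520 nm (ex 380 nm), normalized to no-inhibitor and no-enzyme controls.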
row,IC50 [nM],SMILES
1,399,"C[C@@H]1CN(S(=O)(=O)c2ccc(OC(F)(F)F)cc2)C[C@H](C)N1C(=O)c1cnn[nH]1 [Example 101, [(2R,6S)-2,6-dimethyl-4-{[4-(trifluoromethoxy)phenyl]sulfonyl}piperazin-1-yl](1H-1,2,3-triazol-5-yl)methanone]"
2,1,"C[C@@H]1CN(S(=O)(=O)c2ccccc2Br)C[C@H](C)N1C(=O)c1cnn[nH]1 [Example 102, {(2R,6S)-4-[(2-bromophenyl)sulfonyl]-2,6-dimethylpiperazin-1-yl}(1H-1,2,3-triazol-5-yl)methanone]"
3,2,"Cc1c(Cl)cccc1S(=O)(=O)N1C[C@@H](C)N(C(=O)c2cnn[nH]2)[C@@H](C)C1 [Example 103, {(2R,6S)-4-[(3-chloro-2-methylphenyl)sulfonyl]-2,6-dimethylpiperazin-1-yl}(1H-1,2,3-triazol-5-yl)methanone]"
4,34,"C[C@@H]1CN(S(=O)(=O)c2cccc(OC(F)(F)F)c2)C[C@H](C)N1C(=O)c1cnn[nH]1 [Example 106, [(2R,6S)-2,6-dimethyl-4-{[3-(trifluoromethoxy)phenyl]sulfonyl}piperazin-1-yl](1H-1,2,3-triazol-5-yl)methanone]"
5,245,"C[C@@H]1CN(S(=O)(=O)c2ccccc2-c2ccccc2)C[C@H](C)N1C(=O)c1cnn[nH]1 [Example 107, [(2R,6S)-4-(biphenyl-2-ylsulfonyl)-2,6-dimethylpiperazin-1-yl](1H-1,2,3-triazol-5-yl)methanone]"
6,40,"COc1cccc(S(=O)(=O)N2C[C@@H](C)N(C(=O)c3cnn[nH]3)[C@@H](C)C2)c1 [Example 108, {(2R,6S)-4-[(3-methoxyphenyl)sulfonyl]-2,6-dimethylpiperazin-1-yl}(1H-1,2,3-triazol-5-yl)methanone]"
7,4,"CC1(C)CN(C(=O)c2cnn[nH]2)CCN1S(=O)(=O)c1ccc(Br)cc1 [Example 109, {4-[(4-bromophenyl)sulfonyl]-3,3-dimethylpiperazin-1-yl}(1H-1,2,3-triazol-5-yl)methanone]"
8,5,"CC1(C)CN(C(=O)c2cnn[nH]2)CCN1S(=O)(=O)c1ccc(Cl)cc1 [Example 110, {4-[(4-chlorophenyl)sulfonyl]-3,3-dimethylpiperazin-1-yl}(1H-1,2,3-triazol-5-yl)methanone]"
9,89,"CC1(C)CN(C(=O)c2cnn[nH]2)CCN1S(=O)(=O)c1ccc([N+](=O)[O-])cc1 [Example 111, {3,3-dimethyl-4-[(4-nitrophenyl)sulfonyl]piperazin-1-yl}(1H-1,2,3-triazol-5-yl)methanone]"
10,24,"CC1(C)CN(C(=O)c2cnn[nH]2)CCN1S(=O)(=O)c1cccc([N+](=O)[O-])c1 [Example 112, {3,3-dimethyl-4-[(3-nitrophenyl)sulfonyl]piperazin-1-yl}(1H-1,2,3-triazol-5-yl)methanone]"
11,39,"Cc1cc(C)c(S(=O)(=O)N2CCN(C(=O)c3cnn[nH]3)CC2(C)C)c(C)c1 [Example 113, {3,3-dimethyl-4-[(2,4,6-trimethylphenyl)sulfonyl]piperazin-1-yl}(1H-1,2,3-triazol-5-yl)methanone]"
12,10,"CC1(C)CN(C(=O)c2cnn[nH]2)CCN1S(=O)(=O)c1ccccc1[N+](=O)[O-] [Example 114, {3,3-dimethyl-4-[(2-nitrophenyl)sulfonyl]piperazin-1-yl}(1H-1,2,3-triazol-5-yl)methanone]"
13,208,"COc1ccc(OC)c(S(=O)(=O)N2CCN(C(=O)c3cnn[nH]3)CC2(C)C)c1 [Example 115, {4-[(2,5-dimethoxyphenyl)sulfonyl]-3,3-dimethylpiperazin-1-yl}(1H-1,2,3-triazol-5-yl)methanone]"
14,2,"CC1(C)CN(C(=O)c2cnn[nH]2)CCN1S(=O)(=O)c1ccc(Cl)c(Cl)c1 [Example 116, {4-[(3,4-dichlorophenyl)sulfonyl]-3,3-dimethylpiperazin-1-yl}(1H-1,2,3-triazol-5-yl)methanone]"
15,4,"Cc1cccc(Cl)c1S(=O)(=O)N1CCN(C(=O)c2cnn[nH]2)CC1(C)C [Example 117, {4-[(2-chloro-6-methylphenyl)sulfonyl]-3,3-dimethylpiperazin-1-yl}(1H-1,2,3-triazol-5-yl)methanone]"
16,77,"COc1ccc(S(=O)(=O)N2CCN(C(=O)c3cnn[nH]3)CC2(C)C)cc1OC [Example 118, {4-[(3,4-dimethoxyphenyl)sulfonyl]-3,3-dimethylpiperazin-1-yl}(1H-1,2,3-triazol-5-yl)methanone]"
17,9,"CC1(C)CN(C(=O)c2cnn[nH]2)CCN1S(=O)(=O)c1cccc(Cl)c1Cl [Example 119, {4-[(2,3-dichlorophenyl)sulfonyl]-3,3-dimethylpiperazin-1-yl}(1H-1,2,3-triazol-5-yl)methanone]"
18,263,"CC1(C)CN(C(=O)c2cnn[nH]2)CCN1S(=O)(=O)c1ccc(C#N)cc1 [Example 120, 4-{[2,2-dimethyl-4-(1H-1,2,3-triazol-5-ylcarbonyl)piperazin-1-yl]sulfonyl}benzonitrile]"
19,29,"CC1(C)CN(C(=O)c2cnn[nH]2)CCN1S(=O)(=O)c1cccc2nsnc12 [Example 121, [4-(2,1,3-benzothiadiazol-4-ylsulfonyl)-3,3-dimethylpiperazin-1-yl](1H-1,2,3-triazol-5-yl)methanone]"
20,35,"CC1(C)CN(C(=O)c2cnn[nH]2)CCN1S(=O)(=O)c1cccc2nonc12 [Example 122, [4-(2,1,3-benzoxadiazol-4-ylsulfonyl)-3,3-dimethylpiperazin-1-yl](1H-1,2,3-triazol-5-yl)methanone]"
21,12,"CC1(C)CN(C(=O)c2cnn[nH]2)CCN1S(=O)(=O)c1c(Cl)cc(Cl)cc1Cl [Example 123, {3,3-dimethyl-4-[(2,4,6-trichlorophenyl)sulfonyl]piperazin-1-yl}(1H-1,2,3-triazol-5-yl)methanone]"
22,96,"COc1ccc(Cl)cc1S(=O)(=O)N1CCN(C(=O)c2cnn[nH]2)CC1(C)C [Example 124, {4-[(5-chloro-2-methoxyphenyl)sulfonyl]-3,3-dimethylpiperazin-1-yl}(1H-1,2,3-triazol-5-yl)methanone]"
23,25,"CC1(C)CN(C(=O)c2cnn[nH]2)CCN1S(=O)(=O)c1ccc2nsnc2c1 [Example 125, [4-(2,1,3-benzothiadiazol-5-ylsulfonyl)-3,3-dimethylpiperazin-1-yl](1H-1,2,3-triazol-5-yl)methanone]"
24,46,"CC1(C)CN(C(=O)c2cnn[nH]2)CCN1S(=O)(=O)c1ccc(F)c(F)c1F [Example 126, {3,3-dimethyl-4-[(2,3,4-trifluorophenyl)sulfonyl]piperazin-1-yl}(1H-1,2,3-triazol-5-yl)methanone]"
25,4,"CC1(C)CN(C(=O)c2cnn[nH]2)CCN1S(=O)(=O)c1cc(Cl)ccc1F [Example 127, {4-[(5-chloro-2-fluorophenyl)sulfonyl]-3,3-dimethylpiperazin-1-yl}(1H-1,2,3-triazol-5-yl)methanone]"
26,18,"CC1(C)CN(C(=O)c2cnn[nH]2)CCN1S(=O)(=O)c1cc(F)c(F)cc1F [Example 128, {3,3-dimethyl-4-[(2,4,5-trifluorophenyl)sulfonyl]piperazin-1-yl}(1H-1,2,3-triazol-5-yl)methanone]"
